Reference: ChEMBL document CHEMBL1132325, “4-Heterocyclohexanone-based inhibitors of the serine protease plasmin” (J Med Chem, 1999)

How the values were obtained:
[1] = target: T1, Plasminogen (Homo sapiens, UniProt P00747); test: (§1) Compound was evaluated for its binding affinity against plasmin
[2] = target: T1, Plasminogen; test: as §1; remark: listed apart in the source
[3] = target: Serine protease 1 (Homo sapiens, UniProt P07477); test: Compound was evaluated for its binding affinity against trypsin
Serine protease 1, sequence (P07477 whole entry): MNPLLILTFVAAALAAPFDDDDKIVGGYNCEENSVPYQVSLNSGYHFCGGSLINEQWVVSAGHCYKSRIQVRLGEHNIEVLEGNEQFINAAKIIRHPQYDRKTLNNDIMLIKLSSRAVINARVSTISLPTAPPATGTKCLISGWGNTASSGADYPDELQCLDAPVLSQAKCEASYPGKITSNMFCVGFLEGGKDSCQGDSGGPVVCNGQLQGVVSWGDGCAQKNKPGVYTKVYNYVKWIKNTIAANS

[4] = target: Prothrombin (Homo sapiens, UniProt P00734); test: Compound was evaluated for its binding affinity against thrombin
[5] = target: Kallikrein-1 (Homo sapiens, UniProt P06870); test: Compound was evaluated for its binding affinity against kallikrein
Kallikrein-1, sequence (P06870 whole entry): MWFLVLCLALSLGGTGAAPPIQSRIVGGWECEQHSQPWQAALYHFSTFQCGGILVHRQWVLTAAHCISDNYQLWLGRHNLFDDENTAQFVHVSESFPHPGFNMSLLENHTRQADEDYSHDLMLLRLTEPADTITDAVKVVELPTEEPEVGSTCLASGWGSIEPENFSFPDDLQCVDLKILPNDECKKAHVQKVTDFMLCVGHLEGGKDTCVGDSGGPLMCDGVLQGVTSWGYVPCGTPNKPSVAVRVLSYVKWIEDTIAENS

T1 sequence (P00747 97-580 limits assumed): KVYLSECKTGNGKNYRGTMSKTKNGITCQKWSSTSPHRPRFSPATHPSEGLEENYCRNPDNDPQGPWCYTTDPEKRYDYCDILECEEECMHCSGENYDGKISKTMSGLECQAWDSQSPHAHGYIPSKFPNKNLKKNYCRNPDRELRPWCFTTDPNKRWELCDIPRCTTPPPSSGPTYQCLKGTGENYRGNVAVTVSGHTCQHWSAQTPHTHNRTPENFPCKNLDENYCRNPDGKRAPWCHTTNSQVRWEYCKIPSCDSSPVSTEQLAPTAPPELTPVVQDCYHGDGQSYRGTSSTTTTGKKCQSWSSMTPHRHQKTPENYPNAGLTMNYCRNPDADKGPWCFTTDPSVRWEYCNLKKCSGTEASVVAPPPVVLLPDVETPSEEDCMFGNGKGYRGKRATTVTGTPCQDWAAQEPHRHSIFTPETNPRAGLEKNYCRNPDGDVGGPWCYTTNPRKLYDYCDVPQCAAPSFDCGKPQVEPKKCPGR
T1 sequence (P00747 581-810 limits assumed): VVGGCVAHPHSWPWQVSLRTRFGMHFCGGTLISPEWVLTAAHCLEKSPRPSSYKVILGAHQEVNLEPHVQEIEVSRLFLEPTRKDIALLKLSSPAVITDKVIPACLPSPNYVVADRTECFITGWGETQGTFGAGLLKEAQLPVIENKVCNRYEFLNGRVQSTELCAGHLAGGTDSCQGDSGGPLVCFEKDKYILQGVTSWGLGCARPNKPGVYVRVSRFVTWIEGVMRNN

Row | Ki [1] | Ki [2] | Ki [3] | Ki [4] | Ki [5] | SMILES
1 | – | – | – | 720 µM | 630 µM | CC[C@H](C)[C@@H](N)C(=O)N[C@@H](Cc1ccccc1)C(=O)N(CCCCCCN)C1CSCCC1=O (some centres not stated)
2 | 16000 µM | – | – | – | – | CC[C@@H](C)[C@@H](N)C(=O)N[C@@H](Cc1ccccc1)C(=O)NC1CSCCC1=O (stereo in doubt; form 1)
3 | 9000 µM | – | – | – | – | CC[C@@H](C)[C@@H](N)C(=O)N[C@@H](Cc1ccccc1)C(=O)NC1CSCCC1=O (stereo in doubt; form 2)

Second part, the compound before the results:

Row | SMILES | Ki [1] | Ki [2] | Ki [3] | Ki [4] | Ki [5]
4 | CCC(C)[C@@H](N)C(=O)N[C@@H](Cc1ccccc1)C(=O)N(CCCCCCN)C1CCCCC1 (some centres not stated) | 520 µM | – | – | – | –
5 | CC[C@@H](C)[C@@H](N)C(=O)N[C@@H](Cc1ccccc1)C(=O)N(CCCCCCN)C1CSCCC1=O (some centres not stated) | 130 µM | 50 µM | 1700 µM | – | –
6 | NCCCCCCN(CCCCCCN)C1CSCCC1=O (configuration not stated) | – | 400 µM | 1400 µM | > 10000 µM | > 10000 µM
